Legend:
[1] = system: bitter taste perception of 48 Caucasian subjects; assay: Human psychophysical bitter taste tests (4-AFC recognition thresholds, gLMS intensity ratings); assay type: in vivo; details: for recognition threshold, fold range across subjects: 48 human subjects
Method: All were pre-screened to avoid inclusion of individuals with health problems and overt taste pathologies; pregnant and breast-feeding women were also excluded. Each subject participated in the entire course of the study, which included one training session and nine experimental sessions. Visits consisted of DNA collection and psychophysical tests for genotyping and phenotypic analyses, respectively. General taste abilities were also assessed for the bitter, salty, sour, and sweet taste during the first session.
Experiments were conducted at the sensory analysis laboratory of the German Institute of Human Nutrition Potsdam-Rehbruecke, according to good practice guidelines. […] Perceived bitter taste intensities were rated on the general Labelled Magnitude Scale (gLMS; [72–74]). […] For each 4-AFC test, four coded samples containing 10 ml solution were presented simultaneously; one containing the bitter tastant diluted in mineral water (Evian; Danone, Paris, France) and three containing mineral water only. At each concentration, subjects were challenged to identify the different sample, specify whether the quoted sample tasted bitter, and rate the perceived bitter intensity. Tests were performed with nose clips and oral rinsing, with a 45 s pause between concentrations. Training sessions were first used to familiarize subjects with the experimental procedures, and secondly, to assess general taste abilities. Concentration series consisted of geometric sequences of […], with a 1.5 common ratio and the following concentration ranges: 3.5x10^-5–2.0x10^-3M, 6.9x10^-4–4.0x10^-2 M, 2.6x10^-4–1.5x10^-2 M, 6.9x10^-4–4.0x10^-2 M, for salicin, sodium chloride, citric acid, and sucrose used as reference tastants for bitter, salty, sour, and sweet taste, respectively. Following training, subjects tested each tastant in triplicate over nine sessions. Latin square designs extended for first-order carry-over effects were used to counterbalance presentation order of the test compounds over the test sessions, across subjects and for each test compound, as well as presentation order of the samples at each concentration across both repetitions and subjects. Sensory sessions were monitored and data automatically collected (Fizz; Biosystèmes, Couternon, France).
Detection and recognition probabilities of the bitter samples were analysed per repetition and subject. Relationships between probabilities (detection or recognition probabilities) and concentrations were fitted by a logistic regression model using the maximum-likelihood method. Threshold value and slope of the logistic curves were then obtained per repetition and subject, using a self-implemented toolbox (Matlab; The MathWorks Inc.). […] Where required, outliers were discarded according to the Peirce’s criterion. Perceived intensities, expressed in percentage of the scale length, were analysed similarly.

TAS2R43-H1 = assay: Calcium imaging in HEK 293T Gα16gust44 cells transfected with TAS2R43-H1; assay type: cell-based, human
Excerpt: (§1) Allelic responses to agonists were quantified using in vitro heterologous expression assays designed in previous studies of TAS2R receptor function, which successfully mimic responses in vivo with respect to both magnitude and concentration range [17, 23, 25, 26, 46]. DNA fragments containing TAS2R coding sequences were first amplified from genomic DNA by PCR using a proofreading polymerase (PfuUltra II Fusion HotStart DNA Polymerase; Agilent Technologies, Santa Clara, CA, USA) and cloned into a plasmid vector according to the manufacturer’s protocol (Zero Blunt TOPO PCR Cloning Kit; Life Technologies). A second PCR was performed using specific cloning primers to facilitate subcloning into the expression vector, which was then modified to add an N-terminal signal for cell surface localisation and a C-terminal epitope for immunocytochemical detection to the receptor sequence (Fast Link DNA Ligation Kit; Epicentre, Illumina Inc., Madison, WI, USA) (pcDNA5/FRT Mammalian Expression Vector; Life Technologies). Empty vector was used as a negative control.
(§2) Functional assays were carried out in HEK 293T cells stably expressing the G protein chimera Gα16gust44 and transiently transfected with TAS2R alleles subcloned into the expression vector [78]. Calcium imaging was performed using an automated fluorometric imaging plate reader by exposing transfected cells to test compounds dissolved in assay buffer or to assay buffer alone (FLIPR Tetra; Molecular Devices, LLC, Sunnyvale, CA, USA). Changes in cytosolic calcium levels were monitored by measuring fluorescence intensity of a calcium-sensitive dye previously added (Fluo-4 AM; Life Technologies). Six replicates were carried out for each bitter stimulus, on separate experimental days, with each replicate consisting of concentration series of each bitter tastant.
(§3) Prior to final analysis, fluorescence data from functional assays, expressed in relative fluorescence units (RFU), underwent three corrections. First, a correction calculated from baseline values was applied to compensate for well-to-well fluctuations. A second correction calculated from negative control values was applied to correct for receptor independent artefacts and signal drift. A third correction calculated from positive control values was applied to facilitate comparison of data obtained from different experimental days. Fluorescence ratios ((F-F0)/F0), obtained by subtracting the background fluorescence from fluorescence peak height and then dividing the difference by the background fluorescence, were then used for data analysis. Variance analyses were performed, followed by Bonferroni multiple comparisons tests (SPSS 20; IBM Corporation, Armonk, NY, USA). […]

TAS2R43-H2 = assay: Calcium imaging in HEK 293T Gα16gust44 cells transfected with TAS2R43-H2; assay type: cell-based, human
Excerpt: as §1, §2, §3

TAS2R46-H1 = biological target: T1, TAS2R46-H1 (Homo sapiens, UniProt P59540); assay: Calcium imaging in HEK 293T Gα16gust44 cells transfected with TAS2R46-H1; assay type: cell-based
T1 construct: N-terminal signal for cell surface localisation (N); expressed in transfected cells; host or cells: HEK 293T cells stably expressing the G protein chimera Gα16gust44
T1 sequence (P59540 1-309): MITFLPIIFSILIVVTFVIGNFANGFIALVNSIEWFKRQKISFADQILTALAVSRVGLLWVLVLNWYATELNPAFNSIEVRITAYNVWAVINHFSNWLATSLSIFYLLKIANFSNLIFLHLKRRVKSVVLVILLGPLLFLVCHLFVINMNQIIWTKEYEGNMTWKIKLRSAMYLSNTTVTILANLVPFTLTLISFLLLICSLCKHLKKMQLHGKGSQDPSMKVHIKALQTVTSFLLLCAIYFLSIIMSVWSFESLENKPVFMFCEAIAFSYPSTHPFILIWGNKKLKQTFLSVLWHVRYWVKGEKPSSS
Excerpt: as §1, §2
(§4) Prior to final analysis, fluorescence data from functional assays, expressed in relative fluorescence units (RFU), underwent three corrections. First, a correction calculated from baseline values was applied to compensate for well-to-well fluctuations. A second correction calculated from negative control values was applied to correct for receptor independent artefacts and signal drift. A third correction calculated from positive control values was applied to facilitate comparison of data obtained from different experimental days. Fluorescence ratios ((F-F0)/F0), obtained by subtracting the background fluorescence from fluorescence peak height and then dividing the difference by the background fluorescence, were then used for data analysis. Variance analyses were performed, followed by Bonferroni multiple comparisons tests (SPSS 20; IBM Corporation, Armonk, NY, USA). Threshold response values were then defined as the first concentration eliciting a significant activation of the receptor, with empty vector acting as a negative control. Finally, dose-response curves were fitted to the Hill equation by nonlinear regression in order to determine half maximal effective concentrations (EC50) and maximal amplitude (SigmaPlot; Systat Software Inc., Chicago, IL, USA).

TAS2R46-H2 = biological target: T2, TAS2R46-H2 (Homo sapiens, UniProt P59540); assay: Calcium imaging in HEK 293T Gα16gust44 cells transfected with TAS2R46-H2; assay type: cell-based; details: TAS2R46-H2, truncated variant (premature stop codon)
T2 construct: TAS2R46-H2, a truncated, six-transmembrane variant of the receptor; N-terminal signal for cell surface localisation (N); expressed in transfected cells; host or cells: HEK 293T cells stably expressing the G protein chimera Gα16gust44
T2 sequence (P59540 1-249 limits assumed): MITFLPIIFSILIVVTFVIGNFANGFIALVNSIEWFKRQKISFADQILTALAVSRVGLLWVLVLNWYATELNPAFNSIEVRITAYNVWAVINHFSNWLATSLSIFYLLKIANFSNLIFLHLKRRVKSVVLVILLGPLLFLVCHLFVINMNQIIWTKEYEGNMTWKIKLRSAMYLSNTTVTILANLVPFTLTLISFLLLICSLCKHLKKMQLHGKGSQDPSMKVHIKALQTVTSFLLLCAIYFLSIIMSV
Excerpt: as §1, §2, §4

TAS2R46-H3 = assay: Calcium imaging in HEK 293T Gα16gust44 cells transfected with TAS2R46-H3; assay type: cell-based, human
Excerpt: as §1, §2, §4

[2] = system: every known TAS2R in humans; parameters: method as in PMID 20022913; details: complete TAS2R family; cited from earlier work
TAS2R30-H1 = assay: Calcium imaging in HEK 293T Gα16gust44 cells transfected with TAS2R30-H1; assay type: cell-based, human
Excerpt: as §1, §2, §4

TAS2R30-H2 = assay: Calcium imaging in HEK 293T Gα16gust44 cells transfected with TAS2R30-H2; assay type: cell-based, human
Excerpt: as §1, §2, §4

[3] = system: TAS2R30, -31, -43, and -46; assay: Calcium imaging functional assays, statements across TAS2R loci (variants not resolved); assay type: cell-based, human
Excerpt: as §1
as §2, with “Six replicates were carried out for each bitter stimulus, on separate experimental days, with each replicate consisting of concentration series of each bitter tastant.” left out
Prior to final analysis, fluorescence data from functional assays, expressed in relative fluorescence units (RFU), underwent three corrections. First, a correction calculated from baseline values was applied to compensate for well-to-well fluctuations. A second correction calculated from negative control values was applied to correct for receptor independent artefacts and signal drift. […]

[4] = first concentration eliciting significant receptor activation

With `C=C1C(=O)O[C@H]2[C@H]1[C@@H](O)CC(=C)[C@@H]1CC(=O)[C@@H](C)[C@H]21` [grosheimin] the “recognition threshold, fold range across subjects” value [1] was 25 fold, the “concentration perceived as strongly bitter, fold range across subjects” value ([1]; gLMS strong intensity) was 5 fold and the “concentration perceived as strongly bitter, mode” value ([1]; gLMS strong intensity) was 33 µM. For the same molecule, the “concentration perceived as weakly bitter, fold range across subjects” value ([1]; gLMS weak intensity) was 17 fold, the “concentration perceived as weakly bitter, mode” value ([1]; gLMS weak intensity) was 15 µM and the EC50 (TAS2R43-H1) was 16 µM. The maximum amplitude (TAS2R43-H1) was 0.60 ΔF/F, the threshold (TAS2R43-H1; [4]) was 10 µM and the EC50 (TAS2R43-H2) was 6.9 µM. The maximum amplitude (TAS2R43-H2) was 0.81 ΔF/F, the threshold (TAS2R43-H2; [4]) was 3 µM and the EC50 (TAS2R46-H1) was 5.6 µM. The maximum amplitude (TAS2R46-H1) was 0.87 ΔF/F, the threshold (TAS2R46-H1; [4]) was 1000 nM and the “receptor variant response” value (TAS2R46-H2) was “not activated at any concentration”. The EC50 (TAS2R46-H3) was 7.6 µM, the maximum amplitude (TAS2R46-H3) was 0.50 ΔF/F and the threshold (TAS2R46-H3; [4]) was 3 µM. For the same molecule, the “TAS2Rs responsive in published receptor-agonist inventory” value [2] was “only TAS2R43 and -46”.
In the case of `CC(=O)O[C@@H]1C[C@]2(C)[C@H](CC[C@@H](O)[C@]2(C)O)[C@@](C=O)(C[C@@H](O)c2ccoc2)[C@@H]1C` [cascarillin], the “recognition threshold, fold range across subjects” value [1] is reported as 17 fold, the “concentration perceived as weakly bitter, fold range across subjects” value ([1]; gLMS weak intensity) is reported as 11 fold and the “receptor variant response” value (TAS2R30-H1) is reported as “sensitive”. The “receptor variant response” value (TAS2R30-H2) was “insensitive”, the “receptor variant response” value (TAS2R46-H1) was “sensitive” and the “receptor variant response” value (TAS2R46-H2) was “insensitive”. The “receptor variant response” value (TAS2R46-H3) was “intermediate” and the “minimum concentration required to elicit response in functional assays” value ([3]; TAS2R30 and -46 variants) was 30 µM.
For `COC1=C[C@@H](C)[C@@H]2C[C@H]3OC(=O)C[C@H]4C(C)=C(OC)C(=O)[C@H]([C@@]2(C)C1=O)[C@@]34C` [quassin], the “recognition threshold, fold range across subjects” value [1] was 38 fold, the “concentration perceived as strongly bitter, fold range across subjects” value ([1]; gLMS strong intensity) was 8 fold and the “concentration perceived as weakly bitter, fold range across subjects” value ([1]; gLMS weak intensity) was 26 fold. The “receptor variant response” value (TAS2R30-H1) was “responding in ranges matching phenotypic recognition threshold”, the “receptor variant response” value (TAS2R46-H1) was “most sensitive” and the “receptor variant response” value (TAS2R46-H2) was “least sensitive”. The “receptor variant response” value (TAS2R46-H3) was “intermediate” and the “TAS2Rs activated in vitro” value [3] was “only TAS2R30 and TAS2R46”.

Source: article PMC4583475, “Receptor Polymorphism and Genomic Structure Interact to Shape Bitter Taste Perception” (PLoS Genetics, 2015)
